Source: patent US20260224588A1, “BENZODIAZEPINONE-DERIVED INHIBITORS OF EGFR AND HER2” (The Research Foundation for the State University of New York, priority 2023, published 2026)

Tests used:
Experiment in all cases: KINOMEscan
Assay type in all cases: binding
Conditions in all cases: 1 μM of compound 4; read-out: POC
[1] = target: T1, TRKA (Homo sapiens, UniProt P04629)
T1 construct: purchased Eurofins DiscoverX Corporation

[2] = target: AMPK-alpha1 (Homo sapiens, UniProt Q13131)
[3] = target: MKNK1 (Homo sapiens, UniProt Q9BUB5)
[4] = target: MST1R (Homo sapiens, UniProt Q04912)
[5] = target: CDK4 (Homo sapiens, UniProt P11802)
[6] = target: T2, GCN2(Kin.Dom.2 + S808G) (Homo sapiens, UniProt Q9P2K8, S808G)
T2 construct: GCN2(Kin.Dom.2 + S808G); purchased Eurofins DiscoverX Corporation
T2 sequence (Q9P2K8 590-1001 S808G limits assumed): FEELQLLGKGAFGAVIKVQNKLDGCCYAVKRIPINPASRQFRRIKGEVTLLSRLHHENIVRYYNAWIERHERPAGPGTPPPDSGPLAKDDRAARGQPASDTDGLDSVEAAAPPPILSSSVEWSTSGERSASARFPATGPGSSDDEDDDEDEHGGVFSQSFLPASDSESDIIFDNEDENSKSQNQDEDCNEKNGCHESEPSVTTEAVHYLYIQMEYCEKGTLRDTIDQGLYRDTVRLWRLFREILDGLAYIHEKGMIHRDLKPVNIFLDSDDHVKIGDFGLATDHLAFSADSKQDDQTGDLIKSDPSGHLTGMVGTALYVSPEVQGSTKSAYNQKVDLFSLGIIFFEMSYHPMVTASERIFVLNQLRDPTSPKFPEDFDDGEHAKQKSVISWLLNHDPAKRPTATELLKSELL

[7] = target: T3, SNARK (Homo sapiens, UniProt Q9H093)
T3 construct: purchased Eurofins DiscoverX (KINOMEscan service)

[8] = target: T4, FLT3(D835V) (Homo sapiens, UniProt P36888, D835V)
T4 construct: purchased Eurofins DiscoverX Corporation

[9] = target: T5, HPK1 (Homo sapiens, UniProt Q92918)
T5 construct: purchased Eurofins DiscoverX Corporation

[10] = target: LRRK2 (Homo sapiens, UniProt Q5S007)
[11] = target: BRSK2 (Homo sapiens, UniProt Q8IWQ3)
[12] = target: MAP3K4 (Homo sapiens, UniProt Q9Y6R4)
[13] = target: MARK2 (Homo sapiens, UniProt Q7KZI7)
[14] = target: MRCKB (Homo sapiens, UniProt Q9Y5S2)
[15] = target: CSNK1A1 (Homo sapiens, UniProt P48729)
[16] = target: PLK1 (Homo sapiens, UniProt P53350)
[17] = target: T6, FLT3(N841I) (Homo sapiens, UniProt P36888, N841I)
T6 construct: purchased Eurofins DiscoverX Corporation

[18] = target: T7, TESK1 (Homo sapiens, UniProt Q15569)
T7 construct: purchased Eurofins DiscoverX Corporation

[19] = target: T8, NIM1 (Homo sapiens, UniProt Q8IY84)
T8 construct: purchased Eurofins DiscoverX Corporation (KINOMEscan)

[20] = target: LCK (Homo sapiens, UniProt P06239)
[21] = target: T9, ZAP70 (Homo sapiens, UniProt P43403)
T9 construct: purchased Eurofins DiscoverX

[22] = target: T10, ULK2 (Homo sapiens, UniProt Q8IYT8)
T10 construct: purchased Eurofins DiscoverX
T10 sequence (Q8IYT8 whole entry): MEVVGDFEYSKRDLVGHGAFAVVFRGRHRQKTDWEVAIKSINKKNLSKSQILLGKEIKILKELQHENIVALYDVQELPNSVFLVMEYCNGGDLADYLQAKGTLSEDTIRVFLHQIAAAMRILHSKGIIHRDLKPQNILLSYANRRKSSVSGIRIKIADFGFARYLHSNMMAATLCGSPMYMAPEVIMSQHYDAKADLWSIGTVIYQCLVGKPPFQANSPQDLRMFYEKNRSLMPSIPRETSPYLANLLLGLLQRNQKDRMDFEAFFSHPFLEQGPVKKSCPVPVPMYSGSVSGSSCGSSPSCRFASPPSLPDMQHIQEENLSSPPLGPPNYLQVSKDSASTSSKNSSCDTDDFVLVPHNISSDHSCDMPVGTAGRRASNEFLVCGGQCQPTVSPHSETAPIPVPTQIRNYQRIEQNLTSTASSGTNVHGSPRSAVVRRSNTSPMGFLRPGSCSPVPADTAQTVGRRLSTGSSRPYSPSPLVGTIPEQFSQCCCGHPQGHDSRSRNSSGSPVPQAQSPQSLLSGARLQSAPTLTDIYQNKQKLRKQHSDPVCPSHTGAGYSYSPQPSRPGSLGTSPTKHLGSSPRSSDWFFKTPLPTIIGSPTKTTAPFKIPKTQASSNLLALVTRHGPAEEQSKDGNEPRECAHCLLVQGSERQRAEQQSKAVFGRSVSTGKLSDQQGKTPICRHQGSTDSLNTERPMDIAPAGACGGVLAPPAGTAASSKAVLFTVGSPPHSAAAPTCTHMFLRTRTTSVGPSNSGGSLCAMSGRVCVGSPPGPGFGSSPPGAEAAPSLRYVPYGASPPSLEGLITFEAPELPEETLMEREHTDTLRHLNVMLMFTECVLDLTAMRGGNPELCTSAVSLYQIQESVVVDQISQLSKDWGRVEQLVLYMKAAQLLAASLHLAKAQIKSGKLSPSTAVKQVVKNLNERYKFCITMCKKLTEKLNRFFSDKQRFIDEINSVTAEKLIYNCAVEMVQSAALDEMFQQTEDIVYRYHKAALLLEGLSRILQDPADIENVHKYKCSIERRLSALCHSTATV

[23] = target: IGF1R (Homo sapiens, UniProt P08069)
[24] = target: T11, EPHB6 (Homo sapiens, UniProt O15197)
T11 construct: purchased Eurofins DiscoverX (KINOMEscan service)
T11 sequence (O15197 32-1021): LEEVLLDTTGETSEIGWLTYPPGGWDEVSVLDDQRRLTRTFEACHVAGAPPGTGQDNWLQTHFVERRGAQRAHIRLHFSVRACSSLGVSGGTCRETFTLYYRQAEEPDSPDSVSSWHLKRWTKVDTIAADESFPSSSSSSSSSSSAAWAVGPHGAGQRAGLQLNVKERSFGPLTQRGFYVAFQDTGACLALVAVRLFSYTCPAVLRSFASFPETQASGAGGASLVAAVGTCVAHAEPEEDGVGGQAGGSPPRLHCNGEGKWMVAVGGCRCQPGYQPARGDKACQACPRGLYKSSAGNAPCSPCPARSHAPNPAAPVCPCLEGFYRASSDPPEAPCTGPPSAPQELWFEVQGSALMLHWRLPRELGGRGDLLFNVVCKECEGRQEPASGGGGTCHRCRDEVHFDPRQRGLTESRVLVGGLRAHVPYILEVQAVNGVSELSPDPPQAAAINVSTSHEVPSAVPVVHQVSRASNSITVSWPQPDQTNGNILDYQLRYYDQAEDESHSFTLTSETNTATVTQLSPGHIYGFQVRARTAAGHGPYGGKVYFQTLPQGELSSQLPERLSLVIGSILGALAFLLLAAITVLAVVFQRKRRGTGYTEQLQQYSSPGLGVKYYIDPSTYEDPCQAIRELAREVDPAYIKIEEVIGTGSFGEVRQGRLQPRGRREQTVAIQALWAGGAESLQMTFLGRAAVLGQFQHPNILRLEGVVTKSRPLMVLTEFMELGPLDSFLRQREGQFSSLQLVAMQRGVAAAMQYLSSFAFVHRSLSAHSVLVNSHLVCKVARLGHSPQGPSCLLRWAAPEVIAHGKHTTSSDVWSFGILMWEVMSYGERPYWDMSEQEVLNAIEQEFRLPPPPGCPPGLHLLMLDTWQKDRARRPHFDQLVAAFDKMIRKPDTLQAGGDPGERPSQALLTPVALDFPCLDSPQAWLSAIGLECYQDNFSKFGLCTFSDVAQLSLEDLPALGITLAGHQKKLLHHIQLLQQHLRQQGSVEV

[25] = target: CDK3 (Homo sapiens, UniProt Q00526)
[26] = target: MAPKAPK2 (Homo sapiens, UniProt P49137)
Sequence of MAPKAPK2 (P49137 whole entry): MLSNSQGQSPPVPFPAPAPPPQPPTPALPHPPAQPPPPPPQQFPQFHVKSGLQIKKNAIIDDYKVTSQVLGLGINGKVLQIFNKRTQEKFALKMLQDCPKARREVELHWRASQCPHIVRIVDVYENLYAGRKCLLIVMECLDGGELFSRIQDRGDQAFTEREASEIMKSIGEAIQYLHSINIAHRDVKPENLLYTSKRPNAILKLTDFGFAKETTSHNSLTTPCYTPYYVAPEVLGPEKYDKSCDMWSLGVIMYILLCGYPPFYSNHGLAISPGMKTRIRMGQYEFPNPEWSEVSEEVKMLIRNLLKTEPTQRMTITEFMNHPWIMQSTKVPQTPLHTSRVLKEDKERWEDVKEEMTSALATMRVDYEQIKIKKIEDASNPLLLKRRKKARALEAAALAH

[27] = target: CDC2L2 (Homo sapiens, UniProt Q9UQ88)
Sequence of CDC2L2 (Q9UQ88 whole entry): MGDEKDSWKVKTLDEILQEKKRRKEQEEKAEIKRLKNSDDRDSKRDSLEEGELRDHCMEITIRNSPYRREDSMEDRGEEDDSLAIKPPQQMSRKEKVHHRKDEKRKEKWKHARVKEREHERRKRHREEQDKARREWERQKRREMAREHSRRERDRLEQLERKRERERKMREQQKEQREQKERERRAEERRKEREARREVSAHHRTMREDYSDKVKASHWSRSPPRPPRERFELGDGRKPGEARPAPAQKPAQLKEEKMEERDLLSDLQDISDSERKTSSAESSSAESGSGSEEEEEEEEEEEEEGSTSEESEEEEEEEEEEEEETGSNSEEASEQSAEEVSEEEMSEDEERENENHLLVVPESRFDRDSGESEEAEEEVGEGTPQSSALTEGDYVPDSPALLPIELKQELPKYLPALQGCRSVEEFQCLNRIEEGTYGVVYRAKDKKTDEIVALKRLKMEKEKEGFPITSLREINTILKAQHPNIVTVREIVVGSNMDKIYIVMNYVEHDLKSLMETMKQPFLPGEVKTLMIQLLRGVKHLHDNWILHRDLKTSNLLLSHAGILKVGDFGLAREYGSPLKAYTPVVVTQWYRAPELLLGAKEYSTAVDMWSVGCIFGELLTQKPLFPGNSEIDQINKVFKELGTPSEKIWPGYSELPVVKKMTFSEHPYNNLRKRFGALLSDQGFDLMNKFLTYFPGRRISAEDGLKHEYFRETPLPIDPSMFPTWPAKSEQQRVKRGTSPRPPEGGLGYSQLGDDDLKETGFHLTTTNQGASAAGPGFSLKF

[28] = target: T12, RSK4(Kin.Dom.1-N-terminal) (Homo sapiens, UniProt Q9UK32)
T12 construct: RSK4(Kin.Dom.1-N-terminal); purchased Eurofins DiscoverX (KINOMEscan service)

[29] = target: PIM2 (Homo sapiens, UniProt Q9P1W9)
[30] = target: MAPKAPK5 (Homo sapiens, UniProt Q8IW41)
[31] = target: CDK5 (Homo sapiens, UniProt Q00535)
[32] = target: CAMK1 (Homo sapiens, UniProt Q14012)
[33] = target: MAP3K1 (Homo sapiens, UniProt Q13233)
[34] = target: T13, PAK3 (Homo sapiens, UniProt O75914)
T13 construct: purchased Eurofins DiscoverX Corporation (KINOMEscan)

[35] = target: MST3 (Homo sapiens, UniProt Q9Y6E0)
[36] = target: KIT(D816H) (Homo sapiens, UniProt P10721, D816H)
[37] = target: T14, SIK2 (Homo sapiens, UniProt Q9H0K1)
T14 construct: purchased Eurofins DiscoverX (KINOMEscan service)

[38] = target: BMPR1B (Homo sapiens, UniProt O00238)
Sequence of BMPR1B (O00238 14-502): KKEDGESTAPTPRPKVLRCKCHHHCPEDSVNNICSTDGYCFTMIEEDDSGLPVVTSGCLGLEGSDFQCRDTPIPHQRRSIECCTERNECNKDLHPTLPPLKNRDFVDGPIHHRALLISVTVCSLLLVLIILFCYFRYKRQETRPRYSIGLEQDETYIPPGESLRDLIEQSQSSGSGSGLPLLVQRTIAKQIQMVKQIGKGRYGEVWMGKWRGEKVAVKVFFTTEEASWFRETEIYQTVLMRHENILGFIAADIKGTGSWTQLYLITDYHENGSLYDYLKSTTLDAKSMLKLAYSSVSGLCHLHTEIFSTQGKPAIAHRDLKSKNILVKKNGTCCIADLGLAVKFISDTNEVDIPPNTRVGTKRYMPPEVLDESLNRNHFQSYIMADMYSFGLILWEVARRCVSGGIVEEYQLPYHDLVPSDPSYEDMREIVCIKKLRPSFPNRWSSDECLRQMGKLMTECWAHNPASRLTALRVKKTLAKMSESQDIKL

[39] = target: T15, PDPK1 (Homo sapiens, UniProt O15530)
T15 construct: purchased Eurofins DiscoverX Corporation (KINOMEscan)

T1 sequence (P04629 33-796): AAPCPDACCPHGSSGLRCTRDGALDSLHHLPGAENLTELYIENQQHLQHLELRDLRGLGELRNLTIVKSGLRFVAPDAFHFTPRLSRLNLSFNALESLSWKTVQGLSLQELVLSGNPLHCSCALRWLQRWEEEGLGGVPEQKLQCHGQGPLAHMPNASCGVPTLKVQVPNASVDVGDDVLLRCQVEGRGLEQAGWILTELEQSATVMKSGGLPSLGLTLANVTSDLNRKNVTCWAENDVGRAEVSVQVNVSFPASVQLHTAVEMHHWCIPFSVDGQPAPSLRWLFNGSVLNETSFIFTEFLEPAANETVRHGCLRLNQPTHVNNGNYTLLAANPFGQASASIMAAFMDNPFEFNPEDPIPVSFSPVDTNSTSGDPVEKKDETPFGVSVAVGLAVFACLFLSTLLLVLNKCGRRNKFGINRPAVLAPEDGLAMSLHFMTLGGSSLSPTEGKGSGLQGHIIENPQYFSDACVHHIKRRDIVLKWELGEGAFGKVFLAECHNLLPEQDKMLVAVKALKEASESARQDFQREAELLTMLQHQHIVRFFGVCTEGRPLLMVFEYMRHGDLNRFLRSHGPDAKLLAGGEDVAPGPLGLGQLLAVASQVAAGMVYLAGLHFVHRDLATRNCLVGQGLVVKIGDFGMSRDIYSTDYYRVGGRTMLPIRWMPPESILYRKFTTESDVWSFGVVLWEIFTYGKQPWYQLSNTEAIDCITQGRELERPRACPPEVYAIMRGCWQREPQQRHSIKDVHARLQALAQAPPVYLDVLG

Molecule `C=CC(=O)Nc1ccc(OC)c(Nc2cc(-c3[nH]c(CC)nc3-c3cccc(NC(=O)c4cccc5c4NC(=O)c4ccccc4N5)c3)ccn2)c1` [Compound 4, N-(3-(5-(2-((5-Acrylamido-2-methoxyphenyl)amino)pyridin-4-yl)-2-ethyl-1H-imidazol-4-yl)phenyl)-11-oxo-10,11-dihydro-5H-dibenzo[b,e][1,4]diazepine-9-carboxamide] has a remaining binding at 1 µM [1] of 77%, a remaining binding at 1 µM [2] of 81% and a remaining binding at 1 µM [3] of 100%. It also gave a remaining binding at 1 µM [4] of 85%, a remaining binding at 1 µM [5] of 100% and a remaining binding at 1 µM [6] of 100%. For the same molecule, the remaining binding at 1 µM [7] was 100%, the remaining binding at 1 µM [8] was 100% and the remaining binding at 1 µM [9] was 45%. The remaining binding at 1 µM [10] was 93%, the remaining binding at 1 µM [11] was 93% and the remaining binding at 1 µM [12] was 100%. The remaining binding at 1 µM [13] was 85%, the remaining binding at 1 µM [14] was 1.7% and the remaining binding at 1 µM [15] was 56%. It also gave a remaining binding at 1 µM [16] of 50%, a remaining binding at 1 µM [17] of 97% and a remaining binding at 1 µM [18] of 94%. The remaining binding at 1 µM [19] was 78%, the remaining binding at 1 µM [20] was 7.7% and the remaining binding at 1 µM [21] was 97%. It also gave a remaining binding at 1 µM [22] of 80%, a remaining binding at 1 µM [23] of 90% and a remaining binding at 1 µM [24] of 100%. It also gave a remaining binding at 1 µM [25] of 100%, a remaining binding at 1 µM [26] of 100% and a remaining binding at 1 µM [27] of 91%. The remaining binding at 1 µM [28] was 100%, the remaining binding at 1 µM [29] was 88% and the remaining binding at 1 µM [30] was 100%. For the same molecule, the remaining binding at 1 µM [31] was 100%, the remaining binding at 1 µM [32] was 81% and the remaining binding at 1 µM [33] was 100%. It also gave a remaining binding at 1 µM [34] of 70%, a remaining binding at 1 µM [35] of 73% and a remaining binding at 1 µM [36] of 39%. For the same molecule, the remaining binding at 1 µM [37] was 100%, the remaining binding at 1 µM [38] was 100% and the remaining binding at 1 µM [39] was 84%.
